Assay results from PubChem BioAssay AID248 (DTP/NCI, 2004).
Several values for one entry are separate records, joined by “and”; a condition that tells them apart may be missing. Equal entries are not always repeated. Toxic doses and inconclusive results are not listed. Cut-off read from the data, not from the text of the source: active = T/C of 150% or more; inactive = T/C below 125%.

Tested on: L1210 leukemia ip in BDF1 mice, survival T/C
Experiment: NCI In Vivo Anticancer Drug Screen. Data for tumor model L1210 Leukemia (intraperitoneal) in B6D2F1 (BDF1) mice
Details: endpoint: mean survival time, higher = longer survival
Procedure, shortened: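 Read-out is survival time, reported as the treated-group measurement over the vehicle-control measurement.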

[1] = dose: 100.0 mg/kg/injection, schedule: Q04DX003 (ip), vehicle: saline
[2] = dose: 100.0 mg/kg/injection, schedule: Q01DX009 (ip), vehicle: saline with Tween-80
[3] = dose: 200.0 mg/kg/injection, schedule: Q01DX009 (ip), vehicle: saline with Tween-80

Measured: T/C

CC(/C=N/N=C(N(C)C)N(C)C)=N/N=C(N(C)C)N(C)C
inactive: dose: 15.0 mg/kg/injection, schedule: Q01DX Z (ip), vehicle: methylcellulose (MC) 94 % of control | dose: 30.0 mg/kg/injection, schedule: Q01DX Z (ip), vehicle: methylcellulose (MC) 97 % of control | dose: 30.0 mg/kg/injection, schedule: Q01DX Z (oral), vehicle: methylcellulose (MC) 102 % of control | dose: 60.0 mg/kg/injection, schedule: Q01DX Z (ip), vehicle: methylcellulose (MC) 97 % of control | dose: 60.0 mg/kg/injection, schedule: Q01DX Z (oral), vehicle: methylcellulose (MC) 95 % of control | dose: 120.0 mg/kg/injection, schedule: Q01DX Z (ip), vehicle: methylcellulose (MC) 101 % of control

CCCSc1ccccn1
inactive: dose: 25.0 mg/kg/injection, schedule: Q04DX003 (ip), vehicle: saline 101 % of control | dose: 50.0 mg/kg/injection, schedule: Q04DX003 (ip), vehicle: saline 93 % of control | [1] 95 % of control

O=C(O)C(Cc1ccc(O)cc1)N(S(=O)(=O)Cc1ccccc1)S(=O)(=O)Cc1ccccc1 (stereo not drawn)
inactive: dose: 100.0 mg/kg/injection, schedule: Q01DX001 (ip), vehicle: other 88 % of control | dose: 100.0 mg/kg/injection, schedule: Q04DX003 (ip), vehicle: other 95 % of control | dose: 200.0 mg/kg/injection, schedule: Q01DX001 (ip), vehicle: other 97 % of control | dose: 200.0 mg/kg/injection, schedule: Q04DX003 (ip), vehicle: other 98 % of control | dose: 400.0 mg/kg/injection, schedule: Q01DX001 (ip), vehicle: other 108 % of control | dose: 400.0 mg/kg/injection, schedule: Q04DX003 (ip), vehicle: other 88 % of control

CC(=O)NC1=C(NC(C)C)C(=O)c2ccccc2C1=O
inactive: dose: 12.5 mg/kg/injection, schedule: Q04DX003 (ip), vehicle: saline with Tween-80 94 % of control

O=C(Nc1ccc(Cl)cc1[N+](=O)[O-])Oc1ccc(-c2ccccc2)cc1
inactive: dose: 100.0 mg/kg/injection, schedule: Q01DX001 (ip), vehicle: saline with Tween-80 97 % of control | [2] 94 % of control and 103 % of control | dose: 100.0 mg/kg/injection, schedule: Q04DX002 (ip), vehicle: saline with Tween-80 97 % of control and 91 % of control | dose: 100.0 mg/kg/injection, schedule: Q04DX003 (ip), vehicle: saline with Tween-80 108 % of control | dose: 200.0 mg/kg/injection, schedule: Q01DX001 (ip), vehicle: saline with Tween-80 100 % of control | [3] 92 % of control | dose: 200.0 mg/kg/injection, schedule: Q04DX002 (ip), vehicle: saline with Tween-80 102 % of control and 90 % of control | dose: 200.0 mg/kg/injection, schedule: Q04DX003 (ip), vehicle: saline with Tween-80 107 % of control | dose: 400.0 mg/kg/injection, schedule: Q01DX001 (ip), vehicle: saline with Tween-80 89 % of control | dose: 400.0 mg/kg/injection, schedule: Q01DX009 (ip), vehicle: saline with Tween-80 106 % of control and 92 % of control | dose: 400.0 mg/kg/injection, schedule: Q04DX002 (ip), vehicle: saline with Tween-80 103 % of control and 91 % of control | dose: 400.0 mg/kg/injection, schedule: Q04DX003 (ip), vehicle: saline with Tween-80 95 % of control

CC1OC2COC(C)OC2C(C(O)COC(=O)c2ccc([N+](=O)[O-])cc2)O1 (stereo not drawn)
inactive: dose: 100.0 mg/kg/injection, schedule: Q01DX009 (ip), vehicle: saline 98 % of control | [1] 110 % of control | dose: 200.0 mg/kg/injection, schedule: Q01DX009 (ip), vehicle: saline 98 % of control | dose: 200.0 mg/kg/injection, schedule: Q04DX003 (ip), vehicle: saline 104 % of control | dose: 400.0 mg/kg/injection, schedule: Q01DX009 (ip), vehicle: saline 103 % of control | dose: 400.0 mg/kg/injection, schedule: Q04DX003 (ip), vehicle: saline 101 % of control

Cc1ccc(S(=O)(=O)N(CCCc2c(C)nc(N)nc2N)c2ccccc2)cc1
inactive: dose: 100.0 mg/kg/injection, schedule: Q04DX002 (ip), vehicle: saline 110 % of control | dose: 200.0 mg/kg/injection, schedule: Q04DX002 (ip), vehicle: saline 104 % of control | dose: 400.0 mg/kg/injection, schedule: Q04DX002 (ip), vehicle: saline 91 % of control

O=[N+]([O-])C=C([SH2+])[SH2+].O=[N+]([O-])C=C([SH2+])[SH2+].[Pt+2].c1ccc(C[P+](c2ccccc2)(c2ccccc2)c2ccccc2)cc1
inactive: dose: 50.0 mg/kg/injection, schedule: Q01DX001 (ip), vehicle: saline 95 % of control | dose: 100.0 mg/kg/injection, schedule: Q01DX001 (ip), vehicle: saline 110 % of control | dose: 200.0 mg/kg/injection, schedule: Q01DX001 (ip), vehicle: saline 96 % of control

O=C(O)c1ccc2c(c1)OCO2
inactive: dose: 100.0 mg/kg/injection, schedule: Q01DX009 (ip), vehicle: Klucel (hydroxypropylcellulose) (HPC) 97 % of control | dose: 200.0 mg/kg/injection, schedule: Q01DX009 (ip), vehicle: Klucel (hydroxypropylcellulose) (HPC) 92 % of control | dose: 400.0 mg/kg/injection, schedule: Q01DX009 (ip), vehicle: Klucel (hydroxypropylcellulose) (HPC) 99 % of control

CCC(=O)Nc1cccc(Cl)c1
inactive: [2] 97 % of control | dose: 100.0 mg/kg/injection, schedule: Q04DX003 (ip), vehicle: Klucel (hydroxypropylcellulose) (HPC) 97 % of control | [3] 103 % of control | dose: 200.0 mg/kg/injection, schedule: Q04DX003 (ip), vehicle: Klucel (hydroxypropylcellulose) (HPC) 97 % of control | dose: 400.0 mg/kg/injection, schedule: Q04DX003 (ip), vehicle: Klucel (hydroxypropylcellulose) (HPC) 108 % of control
